Laboratory results from PubChem BioAssay AID330 (DTP/NCI, 2004).
“And” between values parts separate entries of the source, which are not always exact repeats. Equal entries are not always repeated. Toxic doses and inconclusive results are not listed. The calls were made as follows: active = survival T/C of 150% or more; inactive = T/C below 125% in these data.

Test system: P388 leukemia ip, CD2F1 mice, survival T/C
Assay: NCI In Vivo Anticancer Drug Screen. Data for tumor model P388 Leukemia (intraperitoneal) in CD2F1 (CDF1) mice
Conditions: endpoint: median survival time, higher = longer survival
Method in brief: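 Mice carrying the transplanted tumor received test compound or vehicle. Survival was recorded in each group, and the value is the treated-group measurement divided by that of the vehicle-treated control group.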

[1] = dose: 100.0 mg/kg/injection, schedule: Q04DX003 (ip), vehicle: Klucel (hydroxypropylcellulose) (HPC)
[2] = dose: 200.0 mg/kg/injection, schedule: Q04DX003 (ip), vehicle: Klucel (hydroxypropylcellulose) (HPC)
[3] = dose: 60.0 mg/kg/injection, schedule: Q01DX005 (ip), vehicle: saline with Tween-80
[4] = dose: 120.0 mg/kg/injection, schedule: Q01DX005 (ip), vehicle: saline with Tween-80
[5] = dose: 240.0 mg/kg/injection, schedule: Q01DX005 (ip), vehicle: saline with Tween-80
[6] = dose: 50.0 mg/kg/injection, schedule: Q01DX005 (ip), vehicle: saline with Tween-80
[7] = dose: 100.0 mg/kg/injection, schedule: Q01DX005 (ip), vehicle: saline with Tween-80
[8] = dose: 200.0 mg/kg/injection, schedule: Q01DX005 (ip), vehicle: saline with Tween-80

Measured: T/C

O=C(O)C1(Cc2ccc(O)c(O)c2)NCCS1 (stereo not drawn)
inactive: dose: 100.0 mg/kg/injection, schedule: Q01DX001 (ip), vehicle: Klucel (hydroxypropylcellulose) (HPC) 104 % of control | dose: 200.0 mg/kg/injection, schedule: Q01DX001 (ip), vehicle: Klucel (hydroxypropylcellulose) (HPC) 100 % of control

COC1C(O[C@@H]2c3c(cc4c(c3O)C(=O)c3c(O)cccc3C4=O)C(=O)C(C)(O)C2OC)OC(C)C(O)C1O (stereo partly drawn)
inactive: dose: 6.25 mg/kg/injection, schedule: Q04DX003 (ip), vehicle: Klucel (hydroxypropylcellulose) (HPC) 102 % of control | dose: 12.5 mg/kg/injection, schedule: Q04DX003 (ip), vehicle: Klucel (hydroxypropylcellulose) (HPC) 101 % of control | dose: 25.0 mg/kg/injection, schedule: Q04DX003 (ip), vehicle: Klucel (hydroxypropylcellulose) (HPC) 106 % of control | dose: 50.0 mg/kg/injection, schedule: Q04DX003 (ip), vehicle: Klucel (hydroxypropylcellulose) (HPC) 101 % of control and 104 % of control | [1] 104 % of control | [2] 121 % of control

COc1ccc(-c2c(C(=O)O)oc3cc(O)ccc3c2=O)cc1OC
inactive: [3] 99 % of control | [4] 97 % of control | [5] 96 % of control

CC(=O)CC(C)(C)C(C#N)c1ccccc1 (stereo not drawn)
inactive: [1] 99 % of control | [2] 115 % of control | dose: 400.0 mg/kg/injection, schedule: Q04DX003 (ip), vehicle: Klucel (hydroxypropylcellulose) (HPC) 98 % of control

O=C(NCc1ccccn1)c1ccccc1
inactive: dose: 50.0 mg/kg/injection, schedule: Q01DX009 (ip), vehicle: saline 103 % of control | dose: 100.0 mg/kg/injection, schedule: Q01DX009 (ip), vehicle: saline 90 % of control | dose: 200.0 mg/kg/injection, schedule: Q01DX009 (ip), vehicle: saline 100 % of control

O=C(Nc1cc(-c2ccccc2)[nH]n1)c1ccccc1Cl
inactive: [3] 100 % of control | [4] 93 % of control | [5] 93 % of control

CCSC(C(O)C(O)C(O)C(O)CO)n1cnc2c(=S)nc[nH]c21 (stereo not drawn)
inactive: dose: 25.0 mg/kg/injection, schedule: Q01DX009 (ip), vehicle: water 97 % of control | dose: 50.0 mg/kg/injection, schedule: Q01DX009 (ip), vehicle: water 94 % of control | dose: 100.0 mg/kg/injection, schedule: Q01DX009 (ip), vehicle: water 105 % of control | dose: 200.0 mg/kg/injection, schedule: Q01DX009 (ip), vehicle: water 105 % of control | dose: 400.0 mg/kg/injection, schedule: Q01DX009 (ip), vehicle: water 96 % of control

Cc1cc(=O)c2c3c(ccc2[nH]1)Oc1ccccc1O3
inactive: [6] 101 % of control | [7] 101 % of control | [8] 100 % of control

Fc1ccc(CSC(=S)Nc2ccc(Br)cc2)cc1
inactive: dose: 50.0 mg/kg/injection, schedule: Q01DX009 (ip), vehicle: suspension in saline 100 % of control | dose: 100.0 mg/kg/injection, schedule: Q01DX009 (ip), vehicle: suspension in saline 108 % of control | dose: 200.0 mg/kg/injection, schedule: Q01DX009 (ip), vehicle: suspension in saline 101 % of control

CCCNCC(O)c1cc(C(F)(F)F)nc2c(C(F)(F)F)cccc12 (stereo not drawn)
inactive: dose: 12.5 mg/kg/injection, schedule: Q01DX009 (ip), vehicle: saline with Tween-80 99 % of control | dose: 25.0 mg/kg/injection, schedule: Q01DX009 (ip), vehicle: saline with Tween-80 95 % of control | dose: 50.0 mg/kg/injection, schedule: Q01DX009 (ip), vehicle: saline with Tween-80 107 % of control

CC(=O)OC1COC(n2nnc3c(=O)[nH]cnc32)C(OC(C)=O)C1OC(C)=O (stereo not drawn)
inactive: dose: 100.0 mg/kg/injection, schedule: Q01DX001 (ip), vehicle: saline with Tween-80 103 % of control | dose: 200.0 mg/kg/injection, schedule: Q01DX001 (ip), vehicle: saline with Tween-80 103 % of control | dose: 400.0 mg/kg/injection, schedule: Q01DX001 (ip), vehicle: saline with Tween-80 103 % of control

COC(=O)C1=C(C(=O)OC)C(c2ccccc2)N(C)O1 (stereo not drawn)
inactive: [6] 103 % of control | [7] 98 % of control | [8] 106 % of control

N#CSC/C(=N\Nc1ccc([N+](=O)[O-])cc1[N+](=O)[O-])c1ccccc1
inactive: dose: 50.0 mg/kg/injection, schedule: Q04DX003 (ip), vehicle: saline with Tween-80 100 % of control | dose: 100.0 mg/kg/injection, schedule: Q04DX003 (ip), vehicle: saline with Tween-80 95 % of control | dose: 200.0 mg/kg/injection, schedule: Q04DX003 (ip), vehicle: saline with Tween-80 113 % of control
